# From US7507743B2, “Substituted 8′-pyridinyl-dihydrospiro-[cycloalkyl]-pyrimido[1,2-a] pyrimidin-6-one and 8′-pyrimidinyl-dihydrospiro-[cycloalkyl]-pyrimido[1,2-a] pyrimidin-6-one derivatives” (Sanofi-Aventis, priority 2003, dated 2009)
# Counter-ions that a name gives are not always drawn.
row,melting point,Structure (SMILES)
1,232 to 234 °C,"O=C(CN1c2nc(-c3ccncc3)cc(=O)n2CCC12CC2)c1ccccc1 (as salt: hydrochloride) [compound 2, 1′-(2-Oxo-2-phenylethyl)-8′-pyridin-4-yl-3′,4′-dihydrospiro[cyclopropane-1,2′-pyrimido[1,2-a]pyrimidin]-6′(1′H)-one]"
2,221 to 223 °C,"O=c1cc(-c2ccncc2)nc2n1CCC1(CCCC1)N2C[C@@H](O)c1ccccc1 (as salt: hydrochloride) [compound 3, 1′-[(2S)-2-Hydroxy-2-phenylethyl]-8′-pyridin-4-yl-3′,4′-dihydrospiro-[cyclopentane-1,2′-pyrimido[1,2-a]pyrimidin]-6′(1′H)-one]"
3,161 to 162 °C,"O=C(CN1c2nc(-c3ccncc3)cc(=O)n2CCC12CCCC2)c1ccccc1 (as salt: hydrochloride) [compound 7, 1′-(2-Oxo-2-phenylethyl)-8′-pyridin-4-yl-3′,4′-dihydrospiro[cyclopentane-1,2′-pyrimido[1,2-a]pyrimidin]-6′(1′H)-one]"
4,214 to 216 °C,"O=c1cc(-c2ccncc2)nc2n1CCC1(CCC1)N2C[C@@H](O)c1ccccc1 (as salt: hydrochloride) [compound 8, 1′-[(2S)-2-Hydroxy-2-phenylethyl]-8′-pyridin-4-yl-3′,4′-dihydrospiro-[cyclobutane-1,2′-pyrimido[1,2-a]pyrimidin]-6′(1′H)-one]"
5,242 to 244 °C,"O=C(CN1c2nc(-c3ccncc3)cc(=O)n2CCC12CCC2)c1ccccc1 (as salt: hydrochloride) [compound 9, 1′-(2-Oxo-2-phenylethyl)-8′-pyridin-4-yl-3′,4′-dihydrospiro[cyclobutane-1,2′-pyrimido[1,2-a]pyrimidin]-6′(1′H)-one]"
6,218 to 220 °C,"O=c1cc(-c2ccncc2)nc2n1CCC1(CCC1)N2C[C@H](O)c1ccccc1 (as salt: hydrochloride) [compound 13, 1′-[(2R)-2-Hydroxy-2-phenylethyl]-8′-pyridin-4-yl-3′,4′-dihydrospiro-[cyclobutane-1,2′-pyrimido[1,2-a]pyrimidin]-6′(1′H)-one]"
7,221 to 222 °C,"O=c1cc(-c2ccncc2)nc2n1CCC1(CCCC1)N2C[C@H](O)c1ccccc1 (as salt: hydrochloride) [compound 15, 1′-[(2R)-2-Hydroxy-2-phenylethyl]-8′-pyridin-4-yl-3′,4′-dihydrospiro-[cyclopentane-1,2′-pyrimido[1,2-a]pyrimidin]-6′(1′H)-one]"
8,233 to 235 °C,"O=c1cc(-c2ccncc2)nc2n1CCC1(CC1)N2Cc1ccccc1 (as salt: hydrochloride) [compound 17, 1′-(phenylmethyl)-8′-pyridin-4-yl-3′,4′-dihydrospiro-[cyclopropane-1,2′-pyrimido[1,2-a]pyrimidin]-6′(1′H)-one]"
9,213 to 215 °C,"O=c1cc(-c2ccncc2)nc2n1CCC1(CCC1)N2Cc1ccccc1 (as salt: hydrochloride) [compound 18, 1′-(phenylmethyl)-8′-pyridin-4-yl-3′,4′-dihydrospiro-[cyclobutane-1,2′-pyrimido[1,2-a]pyrimidin]-6′(1′H)-one]"
10,227 to 228 °C,"O=c1cc(-c2ccncc2)nc2n1CCC1(CCCC1)N2Cc1ccccc1 (as salt: hydrochloride) [compound 19, 1′-(phenylmethyl)-8′-pyridin-4-yl-3′,4′-dihydrospiro-[cyclopentane-1,2′-pyrimido[1,2-a]pyrimidin]-6′(1′H)-one]"
11,208 to 210 °C,"O=c1cc(-c2ccncc2)nc2n1CCC1(CCCC1)N2CCc1ccccc1 (as salt: hydrochloride) [compound 20, 1′-(phenylethyl)-8′-pyridin-4-yl-3′,4′-dihydrospiro-[cyclopentane-1,2′-pyrimido[1,2-a]pyrimidin]-6′(1′H)-one]"
12,210 to 211 °C,"O=c1cc(-c2ccncc2)nc2n1CCC1(CCC1)N2CCc1ccccc1 (as salt: hydrochloride) [compound 21, 1′-(phenylethyl)-8′-pyridin-4-yl-3′,4′-dihydrospiro-[cyclobutane-1,2′-pyrimido[1,2-a]pyrimidin]-6′(1′H)-one]"
13,224 to 225 °C,"O=c1cc(-c2ccncc2)nc2n1CCC1(CC1)N2CCc1ccccc1 (as salt: hydrochloride) [compound 22, 1′-(phenylethyl)-8′-pyridin-4-yl-3′,4′-dihydrospiro-[cyclopropane-1,2′-pyrimido[1,2-a]pyrimidin]-6′(1′H)-one]"
14,219 to 221 °C,"O=c1cc(-c2ccncc2)nc2n1CCC1(CC1)N2C[C@@H](O)c1ccccc1 (as salt: hydrochloride) [compound No. 1, 1′-[(2S)-2-Hydroxy-2-phenylethyl]-8′-pyridin-4-yl-3′,4′-dihydrospiro[cyclopropane-1,2′-pyrimido[1,2-a]pyrimidin]-6′(1′H)-one]"
15,157 to 158 °C,"O=c1cc(-c2ccncn2)nc2n1CCC1(CCCC1)N2C[C@@H](O)c1ccccc1 [compound 4, 1′-[(2S)-2-Hydroxy-2-phenylethyl]-8′-pyrimidin-4-yl-3′,4′-dihydrospiro-[cyclopentane-1,2′-pyrimido[1,2-a]pyrimidin]-6′(1′H)-one]"
16,155 to 156 °C,"O=c1cc(-c2ccncn2)nc2n1CCC1(CCCC1)N2C[C@H](O)c1ccccc1 [compound 5, 1′-[(2R)-2-Hydroxy-2-phenylethyl]-8′-pyrimidin-4-yl-3′,4′-dihydrospiro-[cyclopentane-1,2′-pyrimido[1,2-a]pyrimidin]-6′(1′H)-one]"
17,194 to 196 °C,"O=C(CN1c2nc(-c3ccncn3)cc(=O)n2CCC12CCCC2)c1ccccc1 [compound 6, 1′-[2-Oxo-2-phenylethyl]-8′-pyrimidin-4-yl-3′,4′-dihydrospiro-[cyclopentane-1,2′-pyrimido[1,2-a]pyrimidin]-6′(1′H)-one]"
18,186 to 187 °C,"O=c1cc(-c2ccncn2)nc2n1CCC1(CCC1)N2C[C@@H](O)c1ccccc1 [compound 11, 1′-[(2S)-2-Hydroxy-2-phenylethyl]-8′-pyrimidin-4-yl-3′,4′-dihydrospiro-[cyclobutane-1,2′-pyrimido[1,2-a]pyrimidin]-6′(1′H)-one]"
19,182 to 184 °C,"O=c1cc(-c2ccncn2)nc2n1CCC1(CCC1)N2C[C@H](O)c1ccccc1 [compound 12, 1′-[(2R)-2-Hydroxy-2-phenylethyl]-8′-pyrimidin-4-yl-3′,4′-dihydrospiro-[cyclobutane-1,2′-pyrimido[1,2-a]pyrimidin]-6′(1′H)-one]"
20,149 to 150 °C,"O=c1cc(-c2ccncn2)nc2n1CCC1(CCC1)N2Cc1ccccc1 [compound 14, 1′-(phenylmethyl)-8′-pyrimidin-4-yl-3′,4′-dihydrospiro-[cyclobutane-1,2′-pyrimido[1,2-a]pyrimidin]-6′(1′H)-one]"
21,191 to 193 °C,"O=c1cc(-c2ccncn2)nc2n1CCC1(CCCC1)N2Cc1ccccc1 [compound 16, 1′-(phenylmethyl)-8′-pyrimidin-4-yl-3′,4′-dihydrospiro-[cyclopentane-1,2′-pyrimido[1,2-a]pyrimidin]-6′(1′H)-one]"
22,116 to 167 °C,"O=c1cc(-c2ccncn2)nc2n1CCC1(CCC1)N2CCc1ccccc1 [compound 23, 1′-(phenylethyl)-8′-pyrimidin-4-yl-3′,4′-dihydrospiro-[cyclobutane-1,2′-pyrimido[1,2-a]pyrimidin]-6′(1′H)-one]"
23,190 to 191 °C,"O=c1cc(-c2ccncn2)nc2n1CCC1(CCCC1)N2CCc1ccccc1 [compound 24, 1′-(phenylethyl)-8′-pyrimidin-4-yl-3′,4′-dihydrospiro-[cyclopentane-1,2′-pyrimido[1,2-a]pyrimidin]-6′(1′H)-one]"
24,207 to 208 °C,"O=C(CN1c2nc(-c3ccncn3)cc(=O)n2CCC12CCC2)c1ccccc1 [compound No. 10, 1′-(2-Oxo-2-phenylethyl)-8′-pyrimidin-4-yl-3′,4′-dihydrospiro[cyclobutane-1,2′-pyrimido[1,2-a]pyrimidine]-6′(1′H)-one]"
